Several values for one entry are separate records, joined by “and”; a condition that tells them apart may be missing. Equal entries are not always repeated. Structures can show the parent of a compound that is named as a salt. Where two headings read alike, the source gives them in different places.
Test system: dogs
[1] = average of 6 dogs, pH 10, conc. 5 mg/ml, dose 30 μg/kg, both eyes
[2] = individual dogs 1-6, pH 10, conc. 5 mg/ml, dose 30 μg/kg, both eyes
[3] = average of 6 dogs, pH 4, conc. 10 mg/ml, dose 50 μg/kg, both eyes, fasted
[4] = average of 6 dogs, pH 4, conc. 40 mg/ml, dose 100 μg/kg, right eye, fed
[5] = individual dogs 1-6, pH 4, conc. 10 mg/ml, dose 50 μg/kg, both eyes, fasted, hydrochloride
[6] = individual dogs 1-6, pH 4, conc. 40 mg/ml, dose 100 μg/kg, right eye, fed, hydrochloride

Experimental: Aqueous eye drop solution comprising ropinirole hydrochloride (10 mg/ml or 40 mg/ml, pH 4) was administered into the eyes of six test dogs with doses of 50 μg/kg and 100 μg/kg for induction of emesis.

CCCN[C@H]1CCc2nc(N)sc2C1 [Pramipexole]
Number of vomits [1]: 3.3
Onset of the first vomit (average induction time for emesis) [1]: 4.5 min
The last vomit (vomiting ended on the average) [1]: 31.3 min
Prolonged emesis or irritation (eye drop solution 5 mg/ml, pH 10, dose 30 μg/kg, six dogs): No prolonged emesis or significant irritation
Number of vomits [2]: 6 (2×) and 1 (2×) and 3 (2×)
Onset of the first vomit [2]: 2 min and 3 min (3×) and 4 min and 12 min
The last vomit [2]: 62 min (2×) and 3 min and 27 min and 22 min and 12 min

CCCN(CCC)CCc1cccc2c1CC(=O)N2 [Ropinirole HCl, Ropinirole hydrochloride]
Number of vomits [3]: 3.5
Onset of the first vomit (average induction time for emesis) [3]: 6.7 min
The last vomit (vomiting ended on the average) [3]: 20.5 min
Number of vomits [4]: 2.3
Onset of the first vomit (average induction time for emesis) [4]: 4.8 min
The last vomit (vomiting ended on the average) [4]: 12.3 min
Time at which vomiting ends, from the administration (eye drop composition, general statement (typically)): ≤ 20 min
Onset of emesis and tolerability when administered to the eye of the animal (general statement of findings): consistent and rapid onset of emesis without producing unnecessarily prolonged emesis, ocular discomfort or significant local irritation
Number of vomits [5]: 3 (4×) and 2 and 7
Onset of the first vomit [5]: 7 min and 6 min (3×) and 4 min and 11 min
The last vomit [5]: 21 min and 20 min (2×) and 14 min and 12 min and 36 min
Number of vomits [6]: 2 (3×) and 1 and 4 and 3
Onset of the first vomit [6]: 6 min (2×) and 2 min and 7 min and 5 min and 3 min
The last vomit [6]: 9 min and 10 min and 7 min and 15 min and 20 min (2×)
Dogs vomiting / dogs treated (pH 4, conc. 10 mg/ml, dose 50 μg/kg, both eyes, fasted): Average 6/6
Dogs vomiting / dogs treated (pH 4, conc. 40 mg/ml, dose 100 μg/kg, right eye, fed): Average 6/6

Source: US10092510B2, “Veterinary method for inducing emesis” (Orion Corporation, priority 2013, dated 2018)
